Earlier results as cited in patent US20050025804A1, “Reduction of adverse inflammation” (priority 2003, published 2005).

Conditions: peroxynitrite decomposition catalyst

| Molecule | rate constant [M⁻¹ s⁻¹] |
| --- | --- |
| acetato (5,10,15,20-tetrakis(N-methyl-4-pyridyl)porphinato) iron (III) tetratosylate [Fe(III)TMPyP] | 2.75e+06 |
| CC(=O)[O-].Cc1c(-c2c3nc(c(-c4c(C)c(S(=O)(=O)[O-])c(C)c(S(=O)(=O)[O-])c4C)c4ccc([n-]4)c(-c4c(C)c(S(=O)(=O)[O-])c(C)c(S(=O)(=O)[O-])c4C)c4nc(c(-c5c(C)c(S(=O)(=O)[O-])c(C)c(S(=O)(=O)[O-])c5C)c5ccc2[n-]5)C=C4)C=C3)c(C)c(S(=O)(=O)[O-])c(C)c1S(=O)(=O)[O-].[Fe+3].[Na+].[Na+].[Na+].[Na+].[Na+].[Na+].[Na+].[Na+] [Fe(III)TMPS, acetato-5,10,15,20-tetrakis(3,5-disulfonatomesityl) porphyrin iron (III) octasodium salt] | 2.06e+06 |
